Results on three molecules are retold here after publication PMC2773443 (Biochemistry, 2009).

In test [1] the target is T1, Bh0493, uronate isomerase from Bacillus halodurans (Halalkalibacterium halodurans, UniProt Q9KFI6).
T1 sequence (Q9KFI6 1-427): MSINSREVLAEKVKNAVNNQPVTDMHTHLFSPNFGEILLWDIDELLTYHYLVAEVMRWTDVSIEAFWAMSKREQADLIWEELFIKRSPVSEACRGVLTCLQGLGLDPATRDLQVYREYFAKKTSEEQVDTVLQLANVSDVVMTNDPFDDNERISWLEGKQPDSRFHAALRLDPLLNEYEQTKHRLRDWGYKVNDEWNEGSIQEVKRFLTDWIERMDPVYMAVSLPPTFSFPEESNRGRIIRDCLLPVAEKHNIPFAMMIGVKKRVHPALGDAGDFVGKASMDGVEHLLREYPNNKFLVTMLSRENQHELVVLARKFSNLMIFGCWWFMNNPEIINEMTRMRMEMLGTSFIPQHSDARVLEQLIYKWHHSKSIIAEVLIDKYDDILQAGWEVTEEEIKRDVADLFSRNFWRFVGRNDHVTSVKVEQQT
Kind of test: X-ray crystal structure, […] Å. The format is binding. The following applies: Zn2+, active site; 40 mM ligand; pH 8.5 (form 1), pH 6.0 (form 2).

The target of test [2] is T1, Bh0493, uronate isomerase from Bacillus halodurans. Kind of test: X-ray crystal structure, […] Å. The format is binding. The following applies: Zn2+, active site; 40 mM ligand; pH 6.0.
The target is the same in test [3]. Nature of the test: inhibition kinetics, slope inhibition constant. Format: biochemical.
The target in test [4] is T2, uronate isomerase (URI) from E. coli (Escherichia coli, UniProt P0A8G3).
T2 sequence (P0A8G3 1-470): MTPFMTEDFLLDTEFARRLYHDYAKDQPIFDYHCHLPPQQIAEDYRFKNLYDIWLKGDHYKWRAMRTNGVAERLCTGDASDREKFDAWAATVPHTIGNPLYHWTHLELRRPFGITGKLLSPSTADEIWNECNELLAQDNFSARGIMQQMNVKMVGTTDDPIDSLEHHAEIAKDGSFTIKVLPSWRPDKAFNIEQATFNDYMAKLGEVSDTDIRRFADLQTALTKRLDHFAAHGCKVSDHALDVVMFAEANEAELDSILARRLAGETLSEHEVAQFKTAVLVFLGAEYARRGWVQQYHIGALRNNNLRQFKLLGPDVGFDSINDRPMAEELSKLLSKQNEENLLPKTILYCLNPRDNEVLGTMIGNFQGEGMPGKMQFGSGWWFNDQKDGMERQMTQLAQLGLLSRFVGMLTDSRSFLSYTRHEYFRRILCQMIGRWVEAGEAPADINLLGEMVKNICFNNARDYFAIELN
Nature of the test: inhibition kinetics, slope inhibition constant. The format is biochemical.

As to `O=C(O)[C@@H](O)C(O)[C@H](O)C(=O)O` [III, D-arabinarate], the “X-ray crystal structure, 2.2 Å (two crystal forms)” value in test [1] was “two inhibitors that mimic the proposed cis-enediol(ate) intermediate, D-arabinarate (III) and its hydroxamate derivative (II)”.
For the molecule `O=C(O)[C@H]1OC(O)[C@H](O)[C@@H](O)[C@@H]1O` (stereo partly drawn) [I, D-glucuronate], the “X-ray crystal structure, 2.1 Å” value in test [2] is recorded as “In the complex with D-glucuronate, the substrate is bound in the open chain configuration”.
`O=C(O)[C@H]1OC[C@H](O)[C@@H](O)[C@@H]1O` [IV, 2,6-Anhydro-L-gulonic acid]: the Ki in test [3] was 24 ± 2 µM; in test [4] it was 45 ± 4 µM.
